Test [1] has as its target T1, TNK1 (Homo sapiens, UniProt Q13470).
T1 sequence (Q13470 1-666): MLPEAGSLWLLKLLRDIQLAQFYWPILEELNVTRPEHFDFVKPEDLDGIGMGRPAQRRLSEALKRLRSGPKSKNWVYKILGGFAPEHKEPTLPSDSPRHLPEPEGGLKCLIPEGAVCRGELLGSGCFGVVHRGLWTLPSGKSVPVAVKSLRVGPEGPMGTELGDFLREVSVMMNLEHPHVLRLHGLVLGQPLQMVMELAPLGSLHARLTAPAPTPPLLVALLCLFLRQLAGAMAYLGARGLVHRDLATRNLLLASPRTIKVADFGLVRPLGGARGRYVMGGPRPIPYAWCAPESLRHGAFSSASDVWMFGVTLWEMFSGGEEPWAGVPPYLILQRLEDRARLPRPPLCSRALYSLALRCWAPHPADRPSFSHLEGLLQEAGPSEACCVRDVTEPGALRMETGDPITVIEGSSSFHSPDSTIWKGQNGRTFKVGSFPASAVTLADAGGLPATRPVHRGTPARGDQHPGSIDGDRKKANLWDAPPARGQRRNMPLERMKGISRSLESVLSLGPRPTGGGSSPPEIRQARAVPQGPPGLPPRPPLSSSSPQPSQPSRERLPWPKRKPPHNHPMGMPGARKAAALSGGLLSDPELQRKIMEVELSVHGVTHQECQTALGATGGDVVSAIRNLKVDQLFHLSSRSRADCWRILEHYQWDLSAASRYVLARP
The test can be described thus: RBC HotSpot Kinase Assay. In kind it is biochemical. Further details: purchased Reaction Biology Corp., Malvern, Pa. Conditions: ATP 10 μM. As for the experimental part:
The RBC HotSpot Kinase assay (Reaction Biology Corp., Malvern, Pa.) was used to evaluate the ability of test compounds to modulate (e.g., inhibit) the enzymatic activity of human TNK1 (UniProt Accession No. Q13470) in the following reaction:
Reagent: Base Reaction buffer; 20 mM Hepes (pH 7.5), 10 mM MgCl2, 1 mM EGTA, 0.02% Brij35, 0.02 mg/ml BSA, 0.1 mM Na3VO4, 2 mM DTT, 1% DMSO. Required cofactors were added individually to each kinase reaction.
Compound handling: Test compounds were dissolved in 100% DMSO to specific concentration. The serial dilution was conducted by Integra Viaflo Assist in DMSO.
1. Prepared substrate (peptide substrate, poly[Glu:Tyr] (4:1), 0.2 mg/ml; ATP 10 μM) in freshly prepared Reaction Buffer;
2. Delivered any required cofactors to the substrate solution;
3. Delivered kinase (TNK1) into the substrate solution and gently mixed;
4. Delivered compounds in 100% DMSO into the kinase reaction mixture by Acoustic technology (Echo550; nanoliter range), incubated for 20 minutes at room temperature;
5. Delivered ^33P-ATP (specific activity 10 μCi/μl) into the reaction mixture to initiate the reaction;
6. Incubated for 2 hours at room temperature;
7. Detected radioactivity by filter-binding method;
8. Kinase activity data were expressed as the percent remaining kinase activity in test samples compared to vehicle (dimethyl sulfoxide) reactions. IC50 values and curve fits were obtained using Prism (GraphPad Software).

Test [2] concerns phospho-STAT5 in L540 cells. The test can be described thus: In vitro pSTAT5 assay (ELISA) in L540 cells. Type of test: cell-based. The conditions noted are these: Homo sapiens, L-540, 24 hours, normalized to cell viability, read-out: P-STAT5 Assay IC50. As for the experimental part:
The L540 cell line harbors a truncating mutation in the C-terminal regulatory region of the protein. As a consequence, TNK1 in L540 cells is constitutively active in phosphorylating key proteins, including STAT5. In TNK1 wild-type conditions (e.g., K562 CML cells), STAT5 phosphorylation is achieved in a TNK1-independent fashion. As such, reductions in phospho-STAT5 signal specific to the L540 cells are a good readout of TNK1 inhibitor function.
Methods: The in vitro pSTAT5 assay was performed with STAT5 AB (pY964/699) SimpleStep ELISA Kit (Abcam No. ab176656) according to the manufacturer's protocol. Briefly, L540 cells were grown in RPMI1640 media under standard culture conditions (10% FBS with penicillin/streptomycin). To assess test compound effects, cells were plated in 96 well plates (250,000 cells/mL) and allowed to grow overnight. Cells were subsequently treated with varying concentrations of test compound for 24 hours, before being harvested and interrogated with the STAT5 AB (pY964/699) SimpleStep ELISA Kit according to the manufacturer's protocol. Phospho-STAT5 signal was normalized to cell viability, as assessed by the CellTiter-Glo assay (Promega, Cat. No. G7570) on treated cells. TNK1 inhibitor IC50s were determined using Graphpad Prism software on normalized phospho-STAT5 measurements.
A general note: An ELISA detects its analyte on a solid surface through an enzyme-linked reagent.

Test [3] has as its target T1, TNK1. Briefly: TNK1 NanoBRET target engagement assay (HEK293). The conditions noted are these: HEK293 cells, 2 hours; read-out: NanoBRET TE Assay (HEK293) IC50. Further details: host or cells: HEK293. In kind it is cell-based. From the text: The NanoBRET target engagement (TE) assay (Promega, Madison, Wis.) enables the interrogation of the displacement of a tracer compound in the active site of a recombinant kinase by a test compound in the intracellular setting. The assay enables simultaneous testing of permeability, solubility, and kinase inhibition, and tests the specific interaction of test agents with a kinase of interest, here, TNK1. The assay is based on the principle of bioluminescence resonance energy transfer (BRET). In the assay, a plasmid-encoded, luciferase-tagged form of TNK1 is transfected into cells. A tracer compound is tagged with a fluorophore that fluoresces when bound to the TNK1 protein. Readout is luminescence and fluorescence. Test compounds show activity by displacing the tracer, thus disrupting BRET.
Methods: The TNK1 NanoBRET TE assays were performed according to the manufacturer's protocol. Briefly, Nanoluc-TNK1 Fusion Vector (Promega, Madison, Wis., Cat. No. NV2181) was transfected into HEK293 cells in bulk (8×10^6 cells in a T175 flask). Up to 30 hours post-transfection, cells were harvested by trypsinization, resuspended at a concentration of 2×10^5 cells/mL, and seeded in 96-well plates at 85 μL/well. A test compound and the K5 tracer were added to each well, and the cells were incubated for 2 hours. Luminescence ([…]) and fluorescence ([…]) were measured to determine a BRET ratio. IC50 values were determined from the BRET ratios using the Graphpad Prism software (GraphPad Software, San Diego, Calif.).
A general note: In BRET a luciferase serves as donor, and the signal depends on an acceptor being close.

Regarding `COc1cc(N2CCN(C)CC2)c(C)cc1Nc1ncc(Br)c(Nc2ccncc2N(C)C)n1` [Example No. 25, 5-bromo-N-(3-(dimethylamine)pyridin-4-yl)-N-(2-methoxy-5-methyl-4-(4-methylpiperazin-1-yl)phenyl)pyrimidine-2,4-diamine], the IC50 in test [1] was less than 5 nM.
In the case of `COc1cc(N2CCN(C)CC2)c(C)cc1Nc1ncc(I)c(Nc2cccnc2N(C)C)n1` [compound 11, N^4-(2-(dimethylamino)pyridin-3-yl)-5-iodo-N^2-(2-methoxy-5-methyl-4-(4-methylpiperazin-1-yl)phenyl)pyrimidine-2,4-diamine], the IC50 was 5 to 50 nM in test [2], less than 5 nM in test [1] and 150 to 1000 nM in test [3].
For `CN1CCN(c2c(Cl)cc(Nc3ncc(Cl)c(Nc4cccnc4N(C)C)n3)c3ccccc23)CC1` [compound 7, 5-chloro-N^2-(3-chloro-4-(4-methylpiperazin-1-yl)naphthalen-1-yl)-N^4-(2-(dimethylamino)pyridin-3-yl)pyrimidine-2,4-diamine] the same measures were 5 to 50 nM, less than 5 nM and greater than 1000 nM.
Turning to `CN1CCN(c2ccc(Nc3ncc(Cl)c(Nc4cccnc4N(C)C)n3)c3ccccc23)CC1` [Example No. 17, 5-chloro-N4-(2-(dimethylamino)pyridin-3-yl)-N2-(4-(4-methylpiperazin-1-yl)naphthalen-1-yl)pyrimidine-2,4-diamine], the IC50 in test [2] was greater than 50 nM; in test [1], 5 to 15 nM; in test [3] it was greater than 1000 nM.
With `COc1cc(N2CCN(C)CC2)c(C)cc1Nc1ncc(C(C)=O)c(Nc2cccnc2N(C)C)n1` [Example No. 12, 1-(4-((2-(dimethylamino)pyridin-3-yl)amino)-2-((2-methoxy-5-methyl-4-(4-methylpiperazin-1-yl)phenyl)amino)pyrimidin-5-yl)ethan-1-one], the IC50 in test [2] was greater than 50 nM; in test [1], 15 to 50 nM; in test [3], greater than 1000 nM.
In the case of `COc1cc(N2CCN(C)CC2)c(C)cc1Nc1ncc(Cl)c(Nc2cccnc2N2CCCCC2)n1` [Example No. 14, 5-chloro-N2-(2-methoxy-5-methyl-4-(4-methylpiperazin-1-yl)phenyl)-N4-(2-(piperidin-1-yl)pyridin-3-yl)pyrimidine-2,4-diamine], the IC50 in test [2] is greater than 50 nM; in test [1] it was 15 to 50 nM; in test [3] it was greater than 1000 nM.
As for `COc1cc(N2CCN(C)CC2)c(C)cc1Nc1ncc(Cl)c(Nc2cccnc2N2CCCC2)n1` [compound 8, 5-chloro-N^2-(2-methoxy-5-methyl-4-(4-methylpiperazin-1-yl)phenyl)-N^4-(2-(pyrrolidin-1-yl)pyridin-3-yl)pyrimidine-2,4-diamine], the IC50 is 5 to 50 nM in test [2], less than 5 nM in test [1] and 150 to 1000 nM in test [3].
As for `CN1CCN(c2c(Cl)cc(Nc3ncc(Cl)c(Nc4cccnc4N4CCCC4=O)n3)c3c2CCCO3)CC1` [Example No. 26, 1-(3-((5-chloro-2-((6-chloro-5-(4-methylpiperazin-1-yl)chroman-8-yl)amino)pyrimidin-4-yl)amino)pyridin-2-yl)pyrrolidin-2-one], in test [1], the IC50 is less than 5 nM.
Still for that read-out and setting: next, `COc1cc(N2CCN(C)CC2)c(Cl)cc1Nc1ncc(Br)c(Nc2cccnc2N(C)C)n1` [Example No. 22, 5-bromo-N-(5-chloro-2-methoxy-4-(4-methylpiperazin-1-yl)phenyl)-N-(2-(dimethylamino)pyridin-3-yl)pyrimidine-2,4-diamine]: less than 5 nM; `COc1cc(N2CCN(CCO)CC2)c(Cl)cc1Nc1ncc(Cl)c(Nc2cccnc2N2CCCC2=O)n1` [compound 30, 1-(3-((5-chloro-2-((5-chloro-4-(4-(2-hydroxyethyl)piperazin-1-yl)-2-methoxyphenyl)amino)pyrimidin-4-yl)amino)pyridin-2-yl)pyrrolidin-2-one]: less than 5 nM; `COc1cc(N2CCNCC2)c(Cl)cc1Nc1ncc(Cl)c(Nc2cccnc2N2CCCC2=O)n1` [Example No. 28, 1-(3-((5-chloro-2-((5-chloro-2-methoxy-4-(piperazin-1-yl)phenyl)amino)pyrimidin-4-yl)amino)pyridin-2-yl)pyrrolidin-2-one]: less than 5 nM.
Take `CN1CCN(c2c(Cl)cc(Nc3ncc(Cl)c(Nc4cccnc4N4CCCC4=O)n3)c3cccnc23)CC1` [Example No. 24, 1-(3-((5-chloro-2-((7-chloro-8-(4-methylpiperazin-1-yl)quinolin-5-yl)amino)pyrimidin-4-yl)amino)pyridin-2-yl)pyrrolidin-2-one]: in test [1], the IC50 is less than 5 nM.
Consider `[2H]C([2H])([2H])N1CCN(c2cc(OC)c(Nc3ncc(Cl)c(Nc4cccnc4N4CCCC4=O)n3)cc2Cl)CC1` [Example No. 29, 1-(3-((5-chloro-2-((5-chloro-2-methoxy-4-(4-(methyl-d3)piperazin-1-yl)phenyl)amino)pyrimidin-4-yl)amino)pyridin-2-yl)pyrrolidin-2-one], for which the IC50 in test [1] is less than 5 nM.
As to `COc1cc(N2CCN(C)CC2)c(C)cc1Nc1ncc(C#N)c(Nc2cccnc2N(C)C)n1` [Example No. 20], the IC50 is 5 to 15 nM in test [1] and 150 to 1000 nM in test [3].
Molecule `[2H]C([2H])([2H])N(c1ncccc1Nc1nc(Nc2cc(C)c(N3CCN(C)CC3)cc2OC)ncc1Br)C([2H])([2H])[2H]` [Example No. 27, N^4-(2-(bis(methyl-d3)amino)pyridin-3-yl)-5-bromo-N-(2-methoxy-5-methyl-4-(4-methylpiperazin-1-yl)phenyl)pyrimidine-2,4-diamine] had an IC50 in test [1] of less than 5 nM.
`COc1cc(N2CCN(C)CC2)c(Cl)cc1Nc1ncc(Br)c(Nc2cccnc2N2CCCC2=O)n1` [Example No. 23, 1-(3-((5-bromo-2-((5-chloro-2-methoxy-4-(4-methylpiperazin-1-yl)phenyl)amino)pyrimidin-4-yl)amino)pyridin-2-yl)pyrrolidin-2-one]: the IC50 in test [1] is less than 5 nM.

As a reminder, the IC50 is the concentration needed to halve the response being measured.

The values are drawn from patent US11529350B2, “Tyrosine kinase non-receptor 1 (TNK1) inhibitors and uses thereof” (Sumitomo Pharma Oncology, Inc., priority 2019, dated 2022).
